Source: patent publication US20250109140A1, “5-[5-(PIPERIDIN-4-YL)THIENO[3,2-C]PYRAZOL-2-YL]INDAZOLE DERIVATIVES AND RELATED COMPOUNDS AS MODULATORS FOR SPLICING NUCLEIC ACIDS AND FOR THE TREATMENT OF PROLIFERATIVE DISEASES” (REMIX THERAPUTICS INC., priority 2022, published 2025)
Where two headings read alike, the source gives them in different places.

How the values were obtained:
HTT mRNA = assay: Splicing RT-qPCR assay, HTT canonical (CJ) and alternative (AJ) junction mRNA; type: cell-based; conditions: Homo sapiens; for EC50: AC50 = 50% response in AJ mRNA increase
In short: (§1)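 Readout is RT-qPCR of CJ and AJ mRNA in lysates from A673 or K562 cells given an 11-point titration (top dose 10 uM final, DMSO at most 0.25%) for 24 hours. Data were normalized to GAPDH, GUSB or PPIA, then to DMSO.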

MYB mRNA = assay: Splicing RT-qPCR assay, MYB canonical (CJ) and alternative (AJ) junction mRNA; type: cell-based; conditions: Homo sapiens; for EC50: AC50 = 50% response in AJ mRNA increase
In short: as §1

SMN2 mRNA = assay: Splicing RT-qPCR gene panel, SMN2 canonical junction (CJ) mRNA; type: cell-based; conditions: Homo sapiens; Table 8; larger gene panel, decrease in CJ mRNA levels
In short: as §1

Target C mRNA = assay: Splicing RT-qPCR gene panel, Target C canonical junction (CJ) mRNA; type: cell-based; conditions: Homo sapiens; Table 8; larger gene panel, decrease in CJ mRNA levels
In short: as §1

HiBiT-tagged MYB protein = assay: HiBiT protein abundance assay, MYB (K562 HiBiT knock-in cells); type: cell-based, human; conditions: 24 hours treatment
In short: (§2)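 Luminescence from the Nano-Glo HiBiT lytic reagent measured tagged protein remaining in knock-in K562 cells after 24 h compound exposure (top dose 10 µM final, 3-fold, 10 points). Responses normalized between parental K562 and DMSO-treated lines were fit by four-parameter logistic to interpolate the 50% concentration.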

HiBiT-tagged HTT protein = assay: HiBiT protein abundance assay, HTT (K562 HiBiT knock-in cells); type: cell-based, human; conditions: 24 hours treatment
In short: as §2

[1] = system: K562 (human chronic myelogenous leukemia) cells; assay: Cell viability, Cell Titer Glo 2.0 assay, K562 cells; type: cell-based; conditions: 72 hours
In short: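 Luminescent Cell Titer Glo 2.0 readout after 72 h exposure (37° C, 5% CO2), medium-only wells as blank. Cells plated 500/well in IMDM with 10% FBS; test compounds diluted from DMSO series 1:100 into medium, 0.1% DMSO final.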

Target C = assay: HiBiT protein abundance assay, Target C (K562 HiBiT knock-in cells); type: cell-based, human; conditions: 24 hours treatment
In short: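 The readout was Nano-Glo HiBiT lytic luminescence after 24 h compound exposure at 37 °C, in 10000 K562 knock-in cells/well. Compounds ran as 10-point, 3-fold series, top final […], ≤0.25% DMSO. Responses were scaled between parental K562 and DMSO-treated controls, and IC50 was interpolated at 50% from four-parameter logistic curves.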

[2] = Table 7, RT-qPCR, A673 or K562 cells, 24 hours treatment
[3] = Table 7, IC50 = 50% response in CJ mRNA decrease, RT-qPCR, A673 or K562 cells, 24 hours treatment, read-out: HTT CJ
[4] = Table 8, larger gene panel, decrease in CJ mRNA levels, read-out: HTT CJ IC50
[5] = Table 7, IC50 = 50% response in CJ mRNA decrease, RT-qPCR, A673 or K562 cells, 24 hours treatment, read-out: MYB CJ
[6] = Table 8, larger gene panel, decrease in CJ mRNA levels, read-out: MYB CJ IC50

Row | Compound | EC50 (HTT mRNA; [2]) [nM] | IC50 (HTT mRNA; [3]) [nM] | IC50 (HTT mRNA; [4]) [nM] | EC50 (MYB mRNA; [2]) [nM] | IC50 (MYB mRNA; [5]) [nM] | IC50 (MYB mRNA; [6]) [nM] | IC50 (SMN2 mRNA) [nM] | IC50 (Target C mRNA) [nM] | IC50 (HiBiT-tagged MYB protein) [nM] | IC50 (HiBiT-tagged HTT protein) [nM] | IC50 [1] [nM] | IC50 (Target C) [nM]
1 | Cn1cc2cc(-n3cc4cc(C5CCNCC5)sc4n3)c(O)cc2n1 [Compound 220] | 1000 to 10000 | 1000 to 10000 | 1000 to 10000 | 1000 to 10000 | 1000 to 10000 | 1000 to 10000 | 1000 to 10000 | 1000 to 10000 | 1000 to 10000 | 1000 to 10000 | 1000 to 10000 | 1000 to 10000
2 | Cn1cc2cc(-c3cc4cn([C@@H]5CCNC[C@H]5F)nc4s3)cc(F)c2n1 [Compound 187] | < 100 | < 100 | < 100 | 100 to 1000 | 100 to 1000 | 100 to 1000 | < 100 | 100 to 1000 | 100 to 1000 | < 100 | 1000 to 10000 | 100 to 1000
3 | Cn1cc2cc(-n3cc4sc(C5CCNCC5)cc4n3)cc(F)c2n1 [Compound 105, 7-fluoro-2-methyl-5-[5-(piperidin-4-yl)thieno[3,2-c]pyrazol-2-yl]indazole] | 100 to 1000 | 100 to 1000 | 100 to 1000 | 1000 to 10000 | 1000 to 10000 | 1000 to 10000 | 100 to 1000 | 1000 to 10000 | 1000 to 10000 | 100 to 1000 | 1000 to 10000 | 1000 to 10000
4 | Cc1cn2cc(-c3nc4cn(C5CCNCC5)nc4s3)nc(C)c2n1 [Compound 1105, 4-(5-{2,8-dimethylimidazo[1,2-a]pyrazin-6-yl}pyrazolo[4,3-d][1,3]thiazol-2-yl)piperidine] | > 10000 | > 10000 | > 10000 | > 10000 | > 10000 | > 10000 | 1000 to 10000 | > 10000 | 1000 to 10000 | 1000 to 10000 | > 10000 | > 10000
5 | Cc1nc2c(F)cc(-n3cc4cc(C5CCNCC5)sc4n3)cc2o1 [Compound 157] | 100 to 1000 | 100 to 1000 | 100 to 1000 | 100 to 1000 | 1000 to 10000 | 100 to 1000 | < 100 | 100 to 1000 | 100 to 1000 | < 100 | 100 to 1000 | < 100
6 | Cn1cc2cc(-c3cc4cn([C@H]5CCNC[C@@H]5F)nc4s3)cc(F)c2n1 [Compound 190] | 100 to 1000 | < 100 | 100 to 1000 | 100 to 1000 | 100 to 1000 | 100 to 1000 | < 100 | 100 to 1000 | 1000 to 10000 | 100 to 1000 | 1000 to 10000 | 1000 to 10000
7 | Cc1nc2c(F)cc(-n3cc4sc(C5CCNCC5)cc4n3)cc2s1 [Compound 168] | 1000 to 10000 | 1000 to 10000 | 1000 to 10000 | 1000 to 10000 | > 10000 | 1000 to 10000 | 100 to 1000 | > 10000 | 1000 to 10000 | 1000 to 10000 | 1000 to 10000 | 1000 to 10000
8 | Cn1cc2cc(-c3cc4cn(C5CCNCC5)nc4s3)c(C#N)cc2n1 [Compound 211] | 1000 to 10000 | 1000 to 10000 | 1000 to 10000 | 1000 to 10000 | 1000 to 10000 | 1000 to 10000 | 100 to 1000 | 1000 to 10000 | 1000 to 10000 | 100 to 1000 | 1000 to 10000 | 1000 to 10000
9 | Cn1cc2cc(-c3cc4cn(C5CCOCC5)nc4s3)cc(F)c2n1 [Compound 161, 7-fluoro-2-methyl-5-[2-(oxan-4-yl)thieno[2,3-c]pyrazol-5-yl]indazole] | > 10000 | > 10000 | > 10000 | > 10000 | > 10000 | > 10000 | > 10000 | > 10000 | > 10000 | > 10000 | > 10000 | > 10000
10 | Cc1cn2cc(-n3cc4cc(C5CCNCC5)sc4n3)nc2c(C)n1 [Compound 227] | 1000 to 10000 | 100 to 1000 | 100 to 1000 | 1000 to 10000 | 1000 to 10000 | 1000 to 10000 | 100 to 1000 | 1000 to 10000 | 1000 to 10000 | 100 to 1000 | 1000 to 10000 | 1000 to 10000
11 | Cn1cc2cc(-c3cc4cn(C5CCNCC5)nc4s3)ncc2n1 [Compound 214] | 100 to 1000 | 1000 to 10000 | 100 to 1000 | 1000 to 10000 | 1000 to 10000 | 1000 to 10000 | 100 to 1000 | 1000 to 10000 | 1000 to 10000 | 1000 to 10000 | 1000 to 10000 | 1000 to 10000
12 | Cc1cn2cc(-c3cc4cn(C5CCNCC5)nc4s3)cc(Cl)c2n1 [Compound 226] | < 100 | < 100 | < 100 | 100 to 1000 | 100 to 1000 | 100 to 1000 | < 100 | 100 to 1000 | 100 to 1000 | < 100 | 100 to 1000 | < 100
13 | Cn1cc2c(F)cc(-n3cc4cc(C5CCNCC5)sc4n3)cc2n1 [Compound 174] | > 10000 | > 10000 | > 10000 | > 10000 | > 10000 | > 10000 | 1000 to 10000 | > 10000 | 1000 to 10000 | 1000 to 10000 | 1000 to 10000 | > 10000
14 | Cc1cn2cc(-n3cc4cc(C5CCNCC5)sc4n3)ncc2n1 [Compound 158] | 100 to 1000 | 100 to 1000 | 100 to 1000 | 100 to 1000 | 100 to 1000 | 100 to 1000 | 100 to 1000 | 100 to 1000 | 100 to 1000 | 100 to 1000 | 100 to 1000 | 100 to 1000
